Measured values from patent publication US10526343B2, “Heterocyclic systems and pharmaceutical applications thereof” (University of Sharjah, priority 2018, dated 2020).
Values after ≈ are worked out from the molar mass of the structure shown.

Tests used:
Assay type in all cases: cell-based
[1] = system: UDH-2 (environmental isolate, S. saprophyticus); test: MIC by broth microdilution; settings: Staphylococcus saprophyticus
Protocol: (§1) Bacteria of the genus Staphylococcus were selected for MIC investigation due to its clinical importance. Compounds showing activity against S. aureus (ATCC 25923) were tested against 10 multidrug-resistant strains of Staphylococcus species, including: clinical isolates methicillin-resistant Staphylococcus aureus (MRSA) strains MRSA-1, MRSA-2, and MRSA-3, and environmental isolates S. saprophyticus (strains UDH-1, UDH-2, UDH-3 and UDH-4), S. haemolyticus (strains UDH-6 and UDH-7), and S. epidermidis strain UDH-5.
(§2) All these strains were resistant to at least three antibiotics from different classes, as confirmed by a disk diffusion assay.
(§3) A broth microdilution method was used to measure MIC according to the Clinical and Laboratory Standards Institute guidelines. Two-fold serial dilutions of the test compound (8 concentrations ranged between 100-0.78 μg/mL) were tested. Two reference antibiotics were used as quality controls (ciprofloxacin and amikacin). In each experiment, solvent (DMSO) was used as a negative control, un-treated control (composing of bacteria in Mueller-Hinton broth) was used as a growth control, blank (culture media alone) was used as sterility control. The 96-well microplate with the test compounds was incubated for 20 hours at 37° C. Turbidity in wells indicated bacterial growth. […] For the definite determination of MIC, CellTiter-Blue® Cell Viability Assay (Promega, USA) was used (as above). The MIC was defined as the lowest compound concentration that prevented the color change of the Cell Viability solution (absence of bacterial growth; thus, suspension remained blue in color). For the definite determination of MIC, CellTiter-Blue® Cell Viability Assay (Promega, USA) was used (as above). To each well of the 96-well microplate, 20 μL of the Cell Viability Assay solution was added to the overnight (20 hours culture) and incubated at 37° C. for 4 hours. After the end of the incubation, pink and blue colors were used to differentiate viable from dead bacterial suspensions, respectively. The MIC was defined as the lowest compound concentration that prevented the color change.

[2] = system: UDH-7 (environmental isolate, S. haemolyticus); test: MIC by broth microdilution; settings: Staphylococcus haemolyticus; environmental isolate
Protocol: as §1, §2, §3

[3] = system: UDH-3 (environmental isolate, S. saprophyticus); test: MIC by broth microdilution; settings: for MIC: Staphylococcus saprophyticus, environmental isolate
Protocol: as §1, §2, §3

[4] = system: UDH-1 (environmental isolate, S. saprophyticus); test: MIC by broth microdilution; settings: for MIC: Staphylococcus saprophyticus, environmental isolate; for times lower than MIC of ciprofloxacin: UDH-1
Protocol: as §1, §2, §3

[5] = system: UDH-6 (environmental isolate, S. haemolyticus); test: MIC by broth microdilution; settings: Staphylococcus haemolyticus; environmental isolate
Protocol: as §1, §2, §3

[6] = system: UDH-5 (environmental isolate, S. epidermidis); test: MIC by broth microdilution; settings: Staphylococcus epidermidis
Protocol: as §1, §2, §3

[7] = system: UDH-4 (environmental isolate, S. saprophyticus); test: MIC by broth microdilution; settings: Staphylococcus saprophyticus
Protocol: as §1, §2, §3

S. aureus (ATCC 25923) = test: MIC by broth microdilution; settings: Staphylococcus aureus, ATCC25923
Protocol: as §1, §3

[8] = system: Bacillus subtilis (environmental isolate); test: Cell viability assay (resazurin) screening for antibacterial activity; set-up: key: Positive: A positive result indicates antibacterial activity expressed as growth inhibition; Negative: a negative result indicates no antibacterial activity expressed as bacterial growth at the tested concentration; settings: single high concentration of 1 mg/mL
[9] = system: Pseudomonas aeruginosa (ATCC 27853); test: as above; set-up: key: Positive: A positive result indicates antibacterial activity expressed as growth inhibition; Negative: a negative result indicates no antibacterial activity expressed as bacterial growth at the tested concentration; settings: single high concentration of 1 mg/mL
[10] = system: MRSA-2 (clinical isolate, methicillin-resistant Staphylococcus aureus); test: MIC by broth microdilution
Protocol: (§4) Bacteria of the genus Staphylococcus were selected for MIC investigation due to its clinical importance.
as §3, with “Two reference antibiotics were used as quality controls (ciprofloxacin and amikacin).” left out

[11] = system: MRSA-3 (clinical isolate, methicillin-resistant Staphylococcus aureus); test: MIC by broth microdilution
Protocol: as §4
as §3, with “Two reference antibiotics were used as quality controls (ciprofloxacin and amikacin).” left out

[12] = system: MRSA-1 (clinical isolate, methicillin-resistant Staphylococcus aureus); test: MIC by broth microdilution; settings: Staphylococcus aureus, MRSA; clinical isolate
Protocol: as §4
as §3, with “Two reference antibiotics were used as quality controls (ciprofloxacin and amikacin).” left out

[13] = system: Enterococcus faecalis (ATCC 29212); test: Cell viability assay (resazurin) screening for antibacterial activity; set-up: key: Positive: A positive result indicates antibacterial activity expressed as growth inhibition; Negative: a negative result indicates no antibacterial activity expressed as bacterial growth at the tested concentration; settings: single high concentration of 1 mg/mL
[14] = system: Staphylococcus aureus (ATCC 25923); test: as above; set-up: key: Positive: A positive result indicates antibacterial activity expressed as growth inhibition; Negative: a negative result indicates no antibacterial activity expressed as bacterial growth at the tested concentration; settings: single high concentration of 1 mg/mL
[15] = system: Escherichia coli (ATCC 25922); test: as above; set-up: key: Positive: A positive result indicates antibacterial activity expressed as growth inhibition; Negative: a negative result indicates no antibacterial activity expressed as bacterial growth at the tested concentration; settings: single high concentration of 1 mg/mL

Structure (SMILES): COC(=O)CC1COc2c(cc3c4c2CCCN4CCC3)-c2c(NC(C)(C)C)n3c(-c4ccccc4)c(-c4ccccc4)sc3[n+]21 (centres unmarked) [Compound 2a]
- MIC [1]: 6.25 µg/mL
- MIC [2]: 12.5 µg/mL
- MIC [3]: 3.12 µg/mL
- times lower than MIC of ciprofloxacin ([3]; UDH-3): approximately 20 times
- MIC [4]: 6.25 µg/mL
- times lower than MIC of ciprofloxacin [4]: approximately 10 times
- MIC [5]: 6.25 µg/mL
- MIC [6]: 1.56 µg/mL
- MIC [7]: 6.25 µg/mL
- MIC (S. aureus (ATCC 25923)): 6.25 µg/mL
- antibacterial activity, Bacillus subtilis [8]: Positive
- antibacterial activity, Pseudomonas aeruginosa [9]: Negative
- MIC [10]: 3.12 µg/mL
- MIC [11]: 3.12 µg/mL
- MIC [12]: 6.25 µg/mL
- antibacterial activity, Enterococcus faecalis [13]: Positive
- antibacterial activity, Staphylococcus aureus [14]: positive antibacterial activities
- antibacterial activity, Escherichia coli [15]: Negative

Structure (SMILES): COC(=O)CC1COc2c(cc3c4c2CCCN4CCC3)-c2c(NC(C)(C)C)n3c(-c4cccc5c4OCCO5)csc3[n+]21 (centres unmarked) [Compound 1p]
- MIC [1]: 25 µg/mL
- MIC [2]: 12.5 µg/mL
- MIC [3]: 6.25 µg/mL
- MIC [4]: 12.5 µg/mL
- MIC [5]: 12.5 µg/mL
- MIC [6]: 1.56 µg/mL
- MIC [7]: 6.25 µg/mL
- MIC (S. aureus (ATCC 25923)): 3.12 µg/mL
- antibacterial activity, Bacillus subtilis [8]: Positive
- antibacterial activity, Pseudomonas aeruginosa [9]: Negative
- MIC [10]: 6.25 µg/mL
- MIC [11]: 6.25 µg/mL
- MIC [12]: 6.25 µg/mL
- antibacterial activity, Enterococcus faecalis [13]: Positive
- antibacterial activity, Staphylococcus aureus [14]: Positive
- antibacterial activity, Escherichia coli [15]: Negative

Structure (SMILES): COC(=O)CC1COc2c(cc3c4c2CCCN4CCC3)-c2c(N)n3c(-c4ccc(F)cc4)c(C)sc3[n+]21 (centres unmarked) [Compound 2b]
- MIC [1]: 12.5 µg/mL
- MIC [2]: 25 µg/mL
- MIC [3]: 25 µg/mL
- MIC [4]: 12.5 µg/mL
- MIC [5]: 25 µg/mL
- MIC [6]: 6.25 µg/mL
- MIC [7]: 12.5 µg/mL
- MIC (S. aureus (ATCC 25923)): 12.5 µg/mL
- antibacterial activity, Bacillus subtilis [8]: Positive
- antibacterial activity, Pseudomonas aeruginosa [9]: Negative
- MIC [10]: 12.5 µg/mL
- MIC [11]: 12.5 µg/mL
- MIC [12]: 12.5 µg/mL
- antibacterial activity, Enterococcus faecalis [13]: Positive
- antibacterial activity, Staphylococcus aureus [14]: Positive
- antibacterial activity, Escherichia coli [15]: Negative

Structure (SMILES): NCC[C@H](O)C(=O)N[C@@H]1C[C@H](N)[C@@H](O[C@H]2O[C@H](CN)[C@@H](O)[C@H](O)[C@H]2O)[C@H](O)[C@H]1O[C@H]1O[C@H](CO)[C@@H](O)[C@H](N)[C@H]1O [Amikacin, amikacin, reference compound]
- MIC [1]: 0.25 µg/mL (≈ 0.427 µM)
- MIC [2]: 4 µg/mL (≈ 6.83 µM)
- MIC [3]: 0.5 µg/mL (≈ 0.854 µM)
- MIC [4]: 8 µg/mL (≈ 13.7 µM)
- MIC [5]: 4 µg/mL (≈ 6.83 µM)
- MIC [6]: < 0.25 µg/mL
- MIC [7]: < 0.25 µg/mL
- MIC (S. aureus (ATCC 25923)): 4 µg/mL (≈ 6.83 µM)
- MIC [10]: 8 µg/mL (≈ 13.7 µM)
- MIC [11]: 2 µg/mL (≈ 3.42 µM)
- MIC [12]: 16 µg/mL (≈ 27.3 µM)

Structure (SMILES): COC(=O)CC1COc2c(cc3c4c2CCCN4CCC3)-c2c(NC(C)(C)C)n3c(-c4ccc(Br)cc4)csc3[n+]21 (centres unmarked) [Compound 1q]
- MIC [1]: 6.25 µg/mL
- MIC [2]: 12.5 µg/mL
- MIC [3]: 12.5 µg/mL
- MIC [4]: 6.25 µg/mL
- times lower than MIC of ciprofloxacin [4]: approximately 10 times
- MIC [5]: 12.5 µg/mL
- MIC [6]: 3.12 µg/mL
- MIC [7]: 3.12 µg/mL
- MIC (S. aureus (ATCC 25923)): 3.12 µg/mL
- antibacterial activity, Bacillus subtilis [8]: Positive
- antibacterial activity, Pseudomonas aeruginosa [9]: Negative
- MIC [10]: 6.25 µg/mL
- MIC [11]: 6.25 µg/mL
- MIC [12]: 6.25 µg/mL
- antibacterial activity, Enterococcus faecalis [13]: Positive
- antibacterial activity, Staphylococcus aureus [14]: Positive
- antibacterial activity, Escherichia coli [15]: Negative

Structure (SMILES): CCOC(=O)c1sc2n(c(NC(C)(C)C)c3[n+]2C(CC(=O)OC)COc2c-3cc3c4c2CCCN4CCC3)c1-c1ccccc1 (centres unmarked) [Compound 1r]
- MIC [1]: 25 µg/mL
- MIC [2]: 50 µg/mL
- MIC [3]: 12.5 µg/mL
- MIC [4]: 12.5 µg/mL
- MIC [5]: 50 µg/mL
- MIC [6]: 6.25 µg/mL
- MIC [7]: 25 µg/mL
- MIC (S. aureus (ATCC 25923)): 12.5 µg/mL
- antibacterial activity, Bacillus subtilis [8]: Positive
- antibacterial activity, Pseudomonas aeruginosa [9]: Negative
- MIC [10]: 12.5 µg/mL
- MIC [11]: 12.5 µg/mL
- MIC [12]: 12.5 µg/mL
- antibacterial activity, Enterococcus faecalis [13]: Positive
- antibacterial activity, Staphylococcus aureus [14]: Positive
- antibacterial activity, Escherichia coli [15]: Negative

Structure (SMILES): COC(=O)CC1COc2c(cc3c4c2CCCN4CCC3)-c2c(NC(C)(C)C)n3c(-c4ccc(Cl)cc4Cl)c(C)sc3[n+]21 (centres unmarked) [Compound 1x]
- MIC [1]: 6.25 µg/mL
- MIC [2]: 12.5 µg/mL
- MIC [3]: 6.25 µg/mL
- MIC [4]: 6.25 µg/mL
- times lower than MIC of ciprofloxacin [4]: approximately 10 times
- MIC [5]: 6.25 µg/mL
- MIC [6]: 1.56 µg/mL
- MIC [7]: 3.12 µg/mL
- MIC (S. aureus (ATCC 25923)): 3.12 µg/mL
- antibacterial activity, Bacillus subtilis [8]: Positive
- antibacterial activity, Pseudomonas aeruginosa [9]: Negative
- MIC [10]: 6.25 µg/mL
- MIC [11]: 6.25 µg/mL
- MIC [12]: 6.25 µg/mL
- antibacterial activity, Enterococcus faecalis [13]: Positive
- antibacterial activity, Staphylococcus aureus [14]: Positive
